Test results taken from the NIST ThermoML archive (doi:10.1021/je5010214).
Numbers after ± are expanded uncertainties.

Settings: Liquid, Vibrating tube method

CCCCCCC [heptane]
Settings | mass density [kg/m3]
283.15 K, 101 kPa | 692.398 ± 0.81
283.15 K, 267.6 kPa | 692.646 ± 0.81
283.15 K, 550.8 kPa | 692.799 ± 0.81
283.15 K, 878.6 kPa | 693.177 ± 0.81
283.15 K, 991.3 kPa | 693.192 ± 0.81
283.15 K, 2020.2 kPa | 694.161 ± 0.82
283.15 K, 2914.8 kPa | 694.997 ± 0.82
283.15 K, 4946.5 kPa | 696.597 ± 0.82
283.15 K, 7034.8 kPa | 698.638 ± 0.83
283.15 K, 9021.6 kPa | 700.052 ± 0.83
283.15 K, 9991.9 kPa | 700.869 ± 0.84
283.15 K, 11959 kPa | 702.48 ± 0.84
283.15 K, 15011 kPa | 704.783 ± 0.85
283.15 K, 18047 kPa | 706.965 ± 0.86
283.15 K, 20045 kPa | 708.637 ± 0.87
283.15 K, 22056 kPa | 709.841 ± 0.88
283.15 K, 25044 kPa | 712 ± 0.89
283.15 K, 28046 kPa | 714.05 ± 0.9
283.15 K, 30052 kPa | 715.435 ± 0.91
283.15 K, 32055 kPa | 716.688 ± 0.92
283.15 K, 32971 kPa | 717.342 ± 0.92
283.15 K, 33000 kPa | 717.432 ± 0.92
283.15 K, 34016 kPa | 718.012 ± 0.93
283.15 K, 34960 kPa | 718.734 ± 0.93
283.15 K, 37943 kPa | 720.455 ± 0.94
283.15 K, 40004 kPa | 721.755 ± 0.95
283.15 K, 42058 kPa | 723.102 ± 0.96
283.15 K, 44940 kPa | 724.839 ± 0.98
283.15 K, 48022 kPa | 726.526 ± 0.99
283.15 K, 49996 kPa | 727.851 ± 1
283.15 K, 51982 kPa | 728.904 ± 1
283.15 K, 54965 kPa | 730.736 ± 1
283.15 K, 57949 kPa | 732.407 ± 1
283.15 K, 59996 kPa | 733.467 ± 1.1
283.15 K, 62025 kPa | 734.345 ± 1.1
283.15 K, 64998 kPa | 735.98 ± 1.1
283.16 K, 65971 kPa | 736.499 ± 1.1
288.15 K, 102 kPa | 688.224 ± 0.81
288.15 K, 391.3 kPa | 688.682 ± 0.81
288.15 K, 554.4 kPa | 688.232 ± 0.81
288.15 K, 882.7 kPa | 689.214 ± 0.81
288.15 K, 989.1 kPa | 688.618 ± 0.81
288.15 K, 2057.5 kPa | 689.559 ± 0.82
288.15 K, 2917.8 kPa | 690.931 ± 0.82
288.15 K, 5041.4 kPa | 692.738 ± 0.82
288.15 K, 7088.8 kPa | 693.96 ± 0.83
288.15 K, 9018.6 kPa | 695.614 ± 0.83
288.15 K, 10040 kPa | 696.278 ± 0.84
288.15 K, 12072 kPa | 698.584 ± 0.84
288.15 K, 15001 kPa | 700.836 ± 0.85
288.15 K, 17968 kPa | 703.23 ± 0.86
288.15 K, 20068 kPa | 704.758 ± 0.87
288.15 K, 22020 kPa | 705.649 ± 0.88
288.15 K, 25002 kPa | 707.645 ± 0.89
288.15 K, 28026 kPa | 709.735 ± 0.9
288.15 K, 30035 kPa | 711.006 ± 0.91
288.15 K, 32084 kPa | 712.959 ± 0.92
288.15 K, 33050 kPa | 713.818 ± 0.93
288.15 K, 33096 kPa | 713.93 ± 0.93
288.15 K, 34036 kPa | 714.067 ± 0.93
288.15 K, 35077 kPa | 714.575 ± 0.94
288.15 K, 37993 kPa | 716.378 ± 0.95
288.15 K, 40041 kPa | 717.608 ± 0.96
288.15 K, 42023 kPa | 718.735 ± 0.97
288.15 K, 44979 kPa | 720.398 ± 0.98
288.15 K, 48045 kPa | 723.18 ± 1
288.15 K, 50068 kPa | 724.245 ± 1
288.15 K, 52032 kPa | 724.841 ± 1
288.15 K, 55077 kPa | 726.211 ± 1
288.15 K, 58004 kPa | 729.214 ± 1.1
288.15 K, 59988 kPa | 729.723 ± 1.1
288.15 K, 61974 kPa | 731.101 ± 1.1
288.15 K, 64942 kPa | 731.745 ± 1.1
288.15 K, 66025 kPa | 732.751 ± 1.1
293.15 K, 100.5 kPa | 683.714 ± 0.81
293.15 K, 825.1 kPa | 684.796 ± 0.81
293.15 K, 1971.7 kPa | 685.978 ± 0.82
293.15 K, 3060.6 kPa | 686.787 ± 0.82
